Common to all, as to assay type: in vivo
The test system of one assay is Aphis gossypii. The assay can be described thus: Aphis gossypii test (cotton leaves, dip). Conditions: cotton leaves dipped. The text has this:
(§1) The expected activity for a given combination of two active compounds can be calculated according to S. R. Colby, Weeds 15 (1967), 20-22) as follows:
(§2) If • X is the kill rate, expressed in % of the untreated control, when employing active compound A at an application rate of m g/ha or in a concentration of m ppm, • Y is the kill rate, expressed in % of the untreated control, when employing active compound B at an application rate of n g/ha or in a concentration of n ppm and • E is the kill rate, expressed in % of the untreated control, when employing active compounds A and B at application rates of m and n g/ha or in a concentration of m and n ppm, then
(§3) If the actual insecticidal kill rate is higher than the calculated one, the kill rates of the combination are superadditive, i.e. a synergistic effect is present. In this case, the kill rate that is actually observed has to be higher than the value, calculated using the formula above, for the expected kill rate (E).
(§4) To produce a suitable preparation of active compound, 1 part by weight of active compound is mixed with the stated amounts of solvent and emulsifier, and the concentrate is diluted with emulsifier-containing water to the desired concentration.
Cotton leaves (Gossypium hirsutum) heavily infested by the cotton aphid (Aphis gossypii) are treated by being dipped into the preparation of active compound of the desired concentration.
After the desired period of time, the kill in % is determined 100% means that all aphids have been killed; 0% means that none of the aphids have been killed. The determined kill rates are entered into Colby's formula (see page 71).

The next assay has as its system Myzus persicae. Briefly: Myzus persicae test (cabbage leaves, dip). Conditions: cabbage leaves dipped; for Kill rate in % after 1 d, found: 4 ppm.
Description: as §1, §2, §3, §4
Cabbage leaves (Brassica oleracea) which are heavily infested by the green peach aphid (Myzus persicae) are treated by being dipped into the preparation of active compound of the desired concentration.
After the desired period of time, the kill in % is determined. 100% means that all aphids have been killed; 0% means that none of the aphids have been killed. The determined kill rates are entered into Colby's formula (see page 71).

The next assay concerns Tetranychus urticae. Briefly: Tetranychus urticae test (OP-resistent, dip application). The note with it: bush beans dipped.
Description: as §1, §2, §3
To produce a suitable preparation of active compound, 1 part by weight of active compound is mixed with the stated amounts of solvent and emulsifier, and the concentrate is diluted with water to the desired concentrations. […]
After the desired period of time, the kill in % is determined. […]

As for `CNC(=O)c1cc(C#N)cc(C)c1NC(=O)c1cc(Br)nn1-c1ncccc1Cl` [compound (5)], the figures for the “Kill rate in % after 6 d, found” value in the assay with Aphis gossypii (0.8 ppm) and in the assay with Myzus persicae (0.16 ppm) were 45% and 5%, respectively. Besides, in the assay with Myzus persicae, the “Kill rate in % after 1 d, found” value was 10%. For the same compound, in the assay with Tetranychus urticae (0.16 ppm), the “Kill rate in % after 7 d, found” value was found to be 0%.
For the compound `Cc1nn(C)c(/C(OC(=O)C(C)(C)C)=C(\C#N)c2ccc(C(C)(C)C)cc2)c1C` [cyenopyrafen], in the assay on Myzus persicae, the “Kill rate in % after 1 d, found” value worked out at 0%.
Turning to `COCCOC(=O)C(C#N)(C(=O)c1ccccc1C(F)(F)F)c1ccc(C(C)(C)C)cc1` (stereo not drawn) [cyflumetofen], the “Kill rate in % after 6 d, found” value in the assay with Aphis gossypii (0.16 ppm) came to 0%.
With `CCOC(=O)OC1=C(c2cc(C)ccc2C)C(=O)N[C@]12CC[C@@H](OC)CC2` [spirotetramat], the “Kill rate in % after 6 d, found” value in the assay on Aphis gossypii (4 ppm) amounted to 15%; with Myzus persicae (0.8 ppm), 10%. Moreover, the “Kill rate in % after 7 d, found” value with Tetranychus urticae (0.8 ppm) was 25%.

Source of the values: US8993480B2, “Active ingredient combinations with insecticidal properties” (Bayer CropScience AG, priority 2006, dated 2015).
